Measured values taken from patent EP0562731A1, “Substituted pyridinesulfonamide compounds or their salts, process for preparing the same, and herbicides containing the same” (ISHIHARA SANGYO KAISHA, Ltd., priority 1992, dated 1993).

Experiments:
Assay in all cases: Test Example 1: foliar application pot test, visual growth control rating
Type in all cases: in vivo
Design in all cases: key: 1: the same as in an untreated plot; 10: perfect growth control
Settings in all cases: wettable powder, observed 20 to 31 days after application
corn (Zea mays) = test system: corn (Zea mays)
From the text: (§1) 1/1,500 are [are (a) = 100 m²] pots were filled with upland farming soil, which in the pots was then sown with a variety of plants. The plants grown will be enumerated below.
(§2) When each plant reached a given growth stage (a 1.2- to 3.0-leaf stage for rice, primary leaf to a 0.7-leaf stage for soybean, 2.1- to 3.6-leaf stage for corn, cotyledon to 0.7-leaf stage for cotton, 2.0- to 3.0-leaf stage for wheat, 0.3- to 3.4-leaf stage for cocklebur, 0.3- to 1.6-leaf stage for morning glory, 0.1- to 1.3-leaf stage for prickly sida, 0.1- to 1.3-leaf stage for slender amaranth, 1.5- to 3.2-leaf stage for barnyard glass, and 1.2- to 3.0-leaf stage for large crabgrass), a predetermined amount of the herbicide of the present invention in the form of a wettable powder, weighed out, diluted with 5 ℓ/a of water and admixed with 0.2 or 0.1 vol%, based on the resulting composition, of an agricultural spreader, was foliarly applied to the plant with a small spray gun. The progress of growth of the plant was visually observed 20 to 31 days after the foliar application to evaluate the degree of growth control according to 10 ratings (1: the same as in an untreated plot - 10: perfect growth control).

[1] = test system: cocklebur (Xanthium strumarium)
From the text: as §1, §2

[2] = test system: slender amaranth (Amaranthus viridis)
From the text: as §1, §2

[3] = test system: prickly sida (Sida spinosa)
From the text: as §1, §2

[4] = test system: barnyard grass (Echinochloa crus-galli)
From the text: as §1, §2

rice (Oryza sativa) = test system: rice (Oryza sativa)
From the text: as §1, §2

[5] = test system: large crabgrass (Digitaria adscendens)
From the text: as §1, §2

wheat (Triticum) = test system: wheat (Triticum)
From the text: as §1, §2

soybean (Glycine max) = test system: soybean (Glycine max)
From the text: as §1, §2

[6] = test system: morning glory (Ipomoea purpurea)
From the text: as §1, §2

SMILES	degree of growth control, ZE (corn (Zea mays); 0.31 g/a active ingredient)	degree of growth control, ZE (corn (Zea mays); 1.25 g/a active ingredient)	degree of growth control, XA ([1]; 0.31 g/a active ingredient)	degree of growth control, XA ([1]; 1.25 g/a active ingredient)	degree of growth control, AM ([2]; 1.25 g/a active ingredient)	degree of growth control, EC ([4]; 0.31 g/a active ingredient)	degree of growth control, EC ([4]; 1.25 g/a active ingredient)	degree of growth control, OR (rice (Oryza sativa); 1.25 g/a active ingredient)	degree of growth control, DI ([5]; 0.31 g/a active ingredient)	degree of growth control, DI ([5]; 1.25 g/a active ingredient)	degree of growth control, TR (wheat (Triticum); 1.25 g/a active ingredient)	degree of growth control, IP ([6]; 0.31 g/a active ingredient)	degree of growth control, IP ([6]; 1.25 g/a active ingredient)	further results
CCN(c1cccc(S(=O)(=O)NC(=O)Nc2nc(OC)nc(OC)n2)n1)S(=O)(=O)C(C)Cl (racemic) [Compound No. 55, 6-[[N-(1-chloroethylsulfonyl)-N-ethyl]amino]-N-[[(4,6-dimethoxytriazin-2-yl)amino]carbonyl]-2-pyridinesulfonamide]	10	10	10	10	6	10	10	9						degree of growth control, AM ([2]; 0.31 g/a active ingredient): 6; degree of growth control, SI ([3]; 0.31 g/a active ingredient): 6; degree of growth control, SI ([3]; 1.25 g/a active ingredient): 6; degree of growth control, OR (rice (Oryza sativa); 0.31 g/a active ingredient): 9
CCN(c1cccc(S(=O)(=O)NC(=O)Nc2nc(C)nc(OC)n2)n1)S(=O)(=O)C(C)F (racemic) [compound 58]									7	7	2			degree of growth control, TR (wheat (Triticum); 0.31 g/a active ingredient): 2; degree of growth control, GL (soybean (Glycine max); 0.31 g/a active ingredient): 1; degree of growth control, GL (soybean (Glycine max); 1.25 g/a active ingredient): 1
CCN(c1cccc(S(=O)(=O)NC(=O)Nc2nc(C)nc(OC)n2)n1)S(=O)(=O)C(C)Br (racemic) [compound 78]	10	10	10	10		10	10					10	10	
CCC(C)N(c1cccc(S(=O)(=O)NC(=O)Nc2nc(C)nc(OC)n2)n1)S(=O)(=O)CC(C)C (racemic) [compound 80]			6	6					2	2		5	5	degree of growth control, SI ([3]; 0.31 g/a active ingredient): 3; degree of growth control, SI ([3]; 1.25 g/a active ingredient): 3
CCC(C)N(c1cccc(S(=O)(=O)NC(=O)Nc2nc(C)nc(OC)n2)n1)S(=O)(=O)C(C)CC (racemic) [compound 81]		2		9	3		6	5		3	2		6	degree of growth control, GL (soybean (Glycine max); 1.25 g/a active ingredient): 6; degree of growth control, SI ([3]; 1.25 g/a active ingredient): 2
CCCCS(=O)(=O)N(c1cccc(S(=O)(=O)NC(=O)Nc2nc(C)nc(OC)n2)n1)C(C)CC (racemic) [compound 84]						5	5					6	6	
COc1nc(C)nc(NC(=O)NS(=O)(=O)c2cccc(N(C)S(=O)(=O)C(C)Cl)n2)n1 (racemic) [compound 85]	10	10				10	10							
CCCN(c1cccc(S(=O)(=O)NC(=O)Nc2nc(C)nc(OC)n2)n1)S(=O)(=O)C(C)Cl (racemic) [compound 86]	10	10				10	10					10	10	
COc1nc(C)nc(NC(=O)NS(=O)(=O)c2cccc(N(C(C)C)S(=O)(=O)C(C)Cl)n2)n1 (racemic) [compound 93]			10	10	9			9				9	9	degree of growth control, AM ([2]; 0.31 g/a active ingredient): 9; degree of growth control, OR (rice (Oryza sativa); 0.31 g/a active ingredient): 9
CCN(c1cccc(S(=O)(=O)NC(=O)Nc2nc(C)nc(OC)n2)n1)S(=O)(=O)C(C)C [Compound No. 1, 6-[(N-ethyl-N-isopropylsulfonyl)amino]-N-[[(4-methoxy-6-methyltriazin-2-yl)amino]carbonyl]-2-pyridinesulfonamide]					10				8	8	8			degree of growth control, TR (wheat (Triticum); 0.31 g/a active ingredient): 8; degree of growth control, AM ([2]; 0.31 g/a active ingredient): 10
CCN(c1cccc(S(=O)(=O)NC(=O)Nc2nc(OC)nc(OC)n2)n1)S(=O)(=O)C(C)C [Compound No. 2, 6-[(N-ethyl-N-isopropylsulfonyl)amino]-N-[[(4,6-dimethoxytriazin-2-yl)amino]carbonyl]-2-pyridinesulfonamide]			10	10	10									degree of growth control, AM ([2]; 0.31 g/a active ingredient): 10
CCCN(c1cccc(S(=O)(=O)NC(=O)Nc2nc(C)nc(OC)n2)n1)S(=O)(=O)CC [Compound No. 3]		8		8	10		9	6		6	4		5	degree of growth control, GL (soybean (Glycine max); 1.25 g/a active ingredient): 3; degree of growth control, SI ([3]; 1.25 g/a active ingredient): 6
CCCN(c1cccc(S(=O)(=O)NC(=O)Nc2nc(OC)nc(OC)n2)n1)S(=O)(=O)C(C)C [Compound No. 5]			10	10		10	10							
CCN(c1cccc(S(=O)(=O)NC(=O)Nc2nc(OC)nc(OC)n2)n1)S(=O)(=O)C(Cl)Cl [Compound No. 57, 6-[(N-dichloromethylsulfonyl-N-ethyl)amino]-N-[[(4,6-dimethoxytriazine-2-yl)amino]carbonyl]-2-pyridinesulfonamide]			10	10					9	9	6	10	10	degree of growth control, TR (wheat (Triticum); 0.31 g/a active ingredient): 6
COc1nc(C)nc(NC(=O)NS(=O)(=O)c2cccc(N(OC)S(=O)(=O)C(C)C)n2)n1 [compound 41]	10	10				10	10							
CCN(c1cccc(S(=O)(=O)NC(=O)Nc2nc(C)nc(OC)n2)n1)S(=O)(=O)C(Cl)Cl [compound 56]	10	10	10	10		10	10	9	10	10	10			degree of growth control, TR (wheat (Triticum); 0.31 g/a active ingredient): 10; degree of growth control, OR (rice (Oryza sativa); 0.31 g/a active ingredient): 9
CCN(c1cccc(S(=O)(=O)NC(=O)Nc2nc(C)nc(OC)n2)n1)S(=O)(=O)C(C)(C)Cl [compound 87]			10	10										
COc1nc(C)nc(NC(=O)NS(=O)(=O)c2cccc(N(C)S(=O)(=O)C(Br)(Br)Br)n2)n1 [compound 89]			10	10					7	7				
CCN(c1cccc(S(=O)(=O)NC(=O)Nc2nc(C)nc(OC)n2)n1)S(=O)(=O)C(Br)(Br)Br [compound 90]			10	10		10	10		6	6				degree of growth control, SI ([3]; 0.31 g/a active ingredient): 6; degree of growth control, SI ([3]; 1.25 g/a active ingredient): 6
CCN(c1cccc(S(=O)(=O)NC(=O)Nc2nc(C)nc(OC)n2)n1)S(=O)(=O)C(Cl)(Cl)Cl [compound 91]			10	10				9			9	9	9	degree of growth control, TR (wheat (Triticum); 0.31 g/a active ingredient): 9; degree of growth control, OR (rice (Oryza sativa); 0.31 g/a active ingredient): 9
